Experimental data reported in patent US20060074098A1, “Methods of treatment of amyloidosis using ethanolcyclicamine aspartyl protease inhibitors” (priority 2004, published 2006).
“And” between values parts separate entries of the source, which are not always exact repeats. Identical values can stand only once.

How the values were obtained:
[1] = system: catD / beta-secretase (BACE); assay: CatD/BACE selectivity (ratio of IC50 values); assay type: biochemical; conditions: each value is an average of four experimental runs; multiple values = more than one experiment
Experimental: (§1) Investigation of potential beta-secretase inhibitors produced compounds with increased selectivity for beta-secretase over other aspartyl proteases such as cathepsin D (catD), cathepsin E (catE), Human Immunodeficiency Viral (HIV) protease, and renin. Selectivity was calculated as a ratio of inhibition (IC50) values in which the inhibition of beta-secretase was compared to the inhibition of other aspartyl proteases.
The compounds of formula (I) can be selective for beta-secretase versus catD.
(§2) In the following examples, each value is an average of four experimental runs and multiple values for one compound indicate that more than one experiment was conducted.

[2] = system: catE / beta-secretase (BACE); assay: CatE/BACE selectivity (ratio of IC50 values); assay type: biochemical; conditions: each value is an average of four experimental runs, multiple values = more than one experiment
Experimental: as §1
The compounds of formula (I) can be selective for beta-secretase versus catE. […] Selectivity is reported as the ratio of IC50(catE):IC50(BACE).
as §2

Selectivity IC50 catD/IC50 BACE [1]	Selectivity IC50 catE/IC50 BACE ([2]; listed as 8.3)	Selectivity IC50 catE/IC50 BACE [2]	SMILES
> 2.9 and > 2.4	> 2.9 and > 2.4	–	CCCC1CCNC(C(O)C(Cc2cc(F)cc(F)c2)NC(C)=O)C1 (stereo not shown) [Example 8.1, N-[1-(3,5-Difluoro-benzyl)-2-hydroxy-2-(4-propylpiperidin-2-yl)-ethyl]-acetamide]
>3.3	–	>3.3	CC(=O)NC(Cc1cc(F)cc(F)c1)C(O)C1CC2CCCCC2CN1 (stereo not shown) [Example 8.2, N-(1-(decahydroisoquinolin-3-yl)-3-(3,5-difluorophenyl)-1-hydroxypropan-2-yl)acetamide]
